US20130084379A1, “ACTIVE INGREDIENT DELIVERY SYSTEM” (FIRMENICH SA, priority 2010, published 2013)

Experiment: Dissolution kinetics in a model beverage base (Distek 2100B USP 2 dissolution system, UV/VIS probe at 324 nm)
Type: physicochemical
Settings: 200 rpm, 20 ppm nominal
Experimental: The dissolution kinetics of the powder prepared in example 1 was compared to that of Compound 1 alone. Evaluation was performed under standard conditions using a Distek 2100B USP 2 dissolution system and a model beverage base.
The model beverage was prepared by stirring together 35 g sucrose, 1.5 g citric acid and 965.3 g deionised water until the sucrose was fully dissolved. Comparative sample 1 was prepared by adding 20 mg of Compound 1 (unencapsulated) to 1 litre of the beverage base to provide 20 ppm of compound 1. Sample 2 was prepared by adding 200 mg of the powder prepared in example 1 to 1 litre of the beverage to provide, once dissolved, a solution containing 20 ppm of compound 1. The samples were each stirred at 200 rpm and the concentration of compound 1 in solution was monitored as a function of time using a UV/VIS spectrometer probe (measuring absorbance at 324 nm). The results are given in the following table (where the values represent the amount (ppm) of Compound 1 in solution: […]

CCCNC(=O)C(C)(C)COc1cccc2c1C(N)=NS(=O)(=O)N2 [Sample 1]
time at which 50% dissolution of Compound 1 was achieved: approximately 3600 seconds
Concentration in Solution (amount of Compound 1 in solution) (time 0 seconds): 0 ppm
Concentration in Solution (amount of Compound 1 in solution) (time 10 seconds): 0.1 ppm
Concentration in Solution (amount of Compound 1 in solution) (time 30 seconds): 0.2 ppm
Concentration in Solution (amount of Compound 1 in solution) (time 60 seconds): 0.3 ppm
Concentration in Solution (amount of Compound 1 in solution) (time 300 seconds): 0.6 ppm
Concentration in Solution (amount of Compound 1 in solution) (time 600 seconds): 1.4 ppm
Concentration in Solution (amount of Compound 1 in solution) (time 3600 seconds): 10.2 ppm
